The subject of assay [1] is Escherichia coli. Put plainly: Antibacterial activity against Escherichia coli by resazurin dye based microdilution method. Format: functional. (In general: Alamar Blue is a resazurin reagent that responds to reducing activity.)
The test system of assay [2] is Staphylococcus aureus. Put plainly: Antibacterial activity against Staphylococcus aureus ATCC 29213 by resazurin dye based microdilution method. The class given is functional.
In assay [3] the test system is Klebsiella pneumoniae. Put plainly: Antibacterial activity against Klebsiella pneumoniae by resazurin dye based microdilution method. The class given is functional.
For assay [4], the system named is Staphylococcus aureus. Put plainly: Antibacterial activity against Methicillin resistant Staphylococcus aureus by resazurin dye based microdilution method. The class given is functional.
The test system of assay [5] is Caco-2. Put plainly: Cytotoxicity against human Caco2 cells by CCK8 assay. Format: functional, cell-based. In general terms: Formazan colour is commonly taken as a measure of viable cells.
In assay [6] the test system is A549. Put plainly: Cytotoxicity against human A549 cells by CCK8 assay. The class given is functional, cell-based.
The subject of assay [7] is PC-3M. Put plainly: Cytotoxicity against human PC3M cells after 72 hrs by MTT assay. Format: functional, cell-based.

≈ marks a conversion by molar mass, not a printed value.

`CC(=O)NC[C@H]1CN(c2ccc(N3CCOCC3)c(F)c2)C(=O)O1` [LINEZOLID]: the MIC was more than 64 µg/mL in assay [1], 1 µg/mL (≈ 2.96 µM) in assay [2], more than 64 µg/mL in assay [3] and 1 µg/mL (≈ 2.96 µM) in assay [4].

In the case of `O=CNc1c2sscc-2[nH]c1=O`, the MIC in assay [1] was 1 µg/mL (≈ 4.99 µM); in assay [2] it was 4 µg/mL (≈ 20 µM); in assay [3], 1 µg/mL (≈ 4.99 µM); in assay [4] it was 2 µg/mL (≈ 9.99 µM).

Regarding `CN(C=O)C1=C2C(=CSS2(=O)=O)NC1=O`, the MIC was 32 µg/mL (≈ 130 µM) in assay [1], 8 µg/mL (≈ 32.5 µM) in assay [2], 64 µg/mL (≈ 260 µM) in assay [3] and 8 µg/mL (≈ 32.5 µM) in assay [4]. The IC50 in assay [5] and in assay [6] was more than 64 µM throughout.

Take `CN(C=O)c1c2sscc-2[nH]c1=O`: the minimal inhibitory concentration (MIC) in assay [1], in assay [2], in assay [3] and in assay [4] was 0.5 µg/mL (≈ 2.33 µM) each time. For the same molecule, the IC50 in assay [5] is 0.57 µM; in assay [7], 1.7 µM; in assay [6], 1.34 µM.

On to `CN(C=O)C1=C2SCSC=C2NC1=O`, for which the MIC in assay [1], in assay [2], in assay [3] and in assay [4] was more than 64 µg/mL each time. Besides, the concentration for half-maximal inhibition (IC50) in assay [5] and in assay [6] was more than 64 µM throughout.

Usually MIC stands for the lowest concentration that inhibits growth of the organism. A word on the IC50: it is the concentration at which inhibition is half-maximal. Lower therefore signals higher potency.
